Entries after “also recorded” stand apart in the source; their conditions may differ. Read-outs that look alike come from different tables or passages of the source.
Assays:
LNCaP cells = assay: LNCaP cell viability assay (CellTiter-Glo); type: cell-based; details: Homo sapiens, 72 h, LNCaP prostate cancer cell viability inhibition, 3 days
Summary of the method: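 LNCaP cells, 5000/well, exposed to compounds in 12-point 3-fold serial dilution (top 10 μM) for 3 days. Viability by CellTiter-Glo luminescence, normalized to untreated cells; IC50 by least-squares nonlinear regression.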

P300/CBP = assay: Immunoblotting of P300/CBP protein levels in LNCaP or 22RV1 cells; type: cell-based; details: LNCaP cells, 10 nM single dose (FIG. 8)
Procedure: Specific exemplary bivalent compounds were characterized in LNCaP or 22RV1 cells. LNCaP or 22RV1 cells that express CBP/P300 proteins were treated with GNE-781 or the bivalent compounds disclosed herein (P-001 to P-174) for indicated hours. Cells were collected, lysed and subject to immunoblotting using an antibody specific to P300 or CBP proteins. Tubulin or vinculin was included as the loading control. DMSO was used as the negative control.
Cultured cells or tissue chunks were washed with cold PBS once and lysed in cold RIPA buffer supplemented with protease inhibitors and phosphatase inhibitors (Beyotime Biotechnology). The solutions were then incubated at 4° C. for 30 minutes with gentle agitation to fully lyse cells. Cell lysates were centrifuged at 13,000 rpm for 10 minutes at 4° C. and pellets were discarded. Total protein concentrations in the lysates were determined by BCA assays (Beyotime Biotechnology). Cell lysates were mixed with Laemmli loading buffer to 1× and heated at 99° C. for 5 min. Proteins were resolved on SDS-PAGE and visualized by chemiluminescence. Images were taken by a ChemiDoc MP Imaging system (Bio-Rad). Protein bands were quantitated using the accompanied software provided by Bio-Rad.

CBP = target: T1, CBP (Homo sapiens, UniProt Q92793); assay: Pharmacodynamic study, CBP in 22RV1 subcutaneous xenograft tumors; type: in vivo, Athymic nude mice; details: single dose 40 mg/kg, i.p. or p.o., six hours after administration (FIG. 9)
T1 construct: from tissue; host or cells: 22RV1 subcutaneous xenograft tumours in athymic nude mice
Procedure: (§1) In addition to cultured cells, athymic nude mice bearing 22RV1 subcutaneous xenograft tumors at the right flank were intraperitoneally or orally treated with 40 mg/kg bivalent compounds. Six hours after drug administration, animals were sacrificed for immunoblotting of P300 and CBP in homogenized xenograft tumor masses. […] Moreover, ICR mice were orally treated with 40 mg/kg bivalent compounds. Six hours after drug administration, animals were sacrificed for immunoblotting of CBP in homogenized lung tissues.
(§2) Athymic nude mice bearing 22RV1 subcutaneous xenograft tumors at the right flank were intraperitoneally or orally treated with selected bivalent compounds at 40 mg/kg. Six hours after drug administration, animals were sacrificed, and xenograft tumors were collected for immunoblotting of P300 and CBP.
(§3) All animal experiments were performed under protocols approved by the Institutional Animal Care and Use Committee (IACUC) of Cullgen. Athymic nude mice (male, 5-weeks old) received 5 million 22RV1 cells subcutaneously inoculated at the right flank site. Twenty days following inoculation, tumors were approximately 500 mm^3 in size. Tumor-bearing mice were treated intraperitoneally or via oral gavage with vehicle or bivalent compounds at indicated doses. 6 hours after drug administration, animals were sacrificed, tumors were resected. Small chunks of tumors were homogenized for immunoblotting of P300/CBP and other proteins as indicated. Alternatively, ICR mice (male, 5-weeks old) were treated via oral gavage with vehicle or bivalent compounds at indicated doses. 6 hours after drug administration, animals were sacrificed, lung tissues were resected. Small chunks of lung tissues were homogenized for immunoblotting of CBP and other proteins as indicated.

P300 [1] = target: T2, P300 (Homo sapiens, UniProt Q09472); assay: Pharmacodynamic study, P300 in 22RV1 subcutaneous xenograft tumors; type: in vivo, Athymic nude mice; design: from tissue; host or cells: 22RV1 subcutaneous xenograft tumours in athymic nude mice; details: single dose 40 mg/kg, i.p. or p.o., six hours after administration (FIG. 9)
Procedure: as §1, §2, §3

P300 [2] = target: T2, P300; assay: Immunoblotting of P300 protein levels in LNCaP or 22RV1 cells; type: cell-based; design: LNCaP or 22RV1 cells that express CBP/P300 proteins were treated with GNE-781 or the bivalent compounds; endogenous in cells; host or cells: LNCaP (clone FGC) or 22RV1 cells; details: for inhibition at 0.01 µM: read-out: Degradation (10 nM)
Summary of the method: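 LNCaP or 22RV1 cells treated with compounds for indicated hours, DMSO as negative control. RIPA lysates resolved by SDS-PAGE and immunoblotted for P300 or CBP, tubulin or vinculin as loading control; chemiluminescent bands quantitated.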

[3] = percentage of inhibition of p300 at 10 nM (Table 3)

T2 sequence (Q09472 whole entry): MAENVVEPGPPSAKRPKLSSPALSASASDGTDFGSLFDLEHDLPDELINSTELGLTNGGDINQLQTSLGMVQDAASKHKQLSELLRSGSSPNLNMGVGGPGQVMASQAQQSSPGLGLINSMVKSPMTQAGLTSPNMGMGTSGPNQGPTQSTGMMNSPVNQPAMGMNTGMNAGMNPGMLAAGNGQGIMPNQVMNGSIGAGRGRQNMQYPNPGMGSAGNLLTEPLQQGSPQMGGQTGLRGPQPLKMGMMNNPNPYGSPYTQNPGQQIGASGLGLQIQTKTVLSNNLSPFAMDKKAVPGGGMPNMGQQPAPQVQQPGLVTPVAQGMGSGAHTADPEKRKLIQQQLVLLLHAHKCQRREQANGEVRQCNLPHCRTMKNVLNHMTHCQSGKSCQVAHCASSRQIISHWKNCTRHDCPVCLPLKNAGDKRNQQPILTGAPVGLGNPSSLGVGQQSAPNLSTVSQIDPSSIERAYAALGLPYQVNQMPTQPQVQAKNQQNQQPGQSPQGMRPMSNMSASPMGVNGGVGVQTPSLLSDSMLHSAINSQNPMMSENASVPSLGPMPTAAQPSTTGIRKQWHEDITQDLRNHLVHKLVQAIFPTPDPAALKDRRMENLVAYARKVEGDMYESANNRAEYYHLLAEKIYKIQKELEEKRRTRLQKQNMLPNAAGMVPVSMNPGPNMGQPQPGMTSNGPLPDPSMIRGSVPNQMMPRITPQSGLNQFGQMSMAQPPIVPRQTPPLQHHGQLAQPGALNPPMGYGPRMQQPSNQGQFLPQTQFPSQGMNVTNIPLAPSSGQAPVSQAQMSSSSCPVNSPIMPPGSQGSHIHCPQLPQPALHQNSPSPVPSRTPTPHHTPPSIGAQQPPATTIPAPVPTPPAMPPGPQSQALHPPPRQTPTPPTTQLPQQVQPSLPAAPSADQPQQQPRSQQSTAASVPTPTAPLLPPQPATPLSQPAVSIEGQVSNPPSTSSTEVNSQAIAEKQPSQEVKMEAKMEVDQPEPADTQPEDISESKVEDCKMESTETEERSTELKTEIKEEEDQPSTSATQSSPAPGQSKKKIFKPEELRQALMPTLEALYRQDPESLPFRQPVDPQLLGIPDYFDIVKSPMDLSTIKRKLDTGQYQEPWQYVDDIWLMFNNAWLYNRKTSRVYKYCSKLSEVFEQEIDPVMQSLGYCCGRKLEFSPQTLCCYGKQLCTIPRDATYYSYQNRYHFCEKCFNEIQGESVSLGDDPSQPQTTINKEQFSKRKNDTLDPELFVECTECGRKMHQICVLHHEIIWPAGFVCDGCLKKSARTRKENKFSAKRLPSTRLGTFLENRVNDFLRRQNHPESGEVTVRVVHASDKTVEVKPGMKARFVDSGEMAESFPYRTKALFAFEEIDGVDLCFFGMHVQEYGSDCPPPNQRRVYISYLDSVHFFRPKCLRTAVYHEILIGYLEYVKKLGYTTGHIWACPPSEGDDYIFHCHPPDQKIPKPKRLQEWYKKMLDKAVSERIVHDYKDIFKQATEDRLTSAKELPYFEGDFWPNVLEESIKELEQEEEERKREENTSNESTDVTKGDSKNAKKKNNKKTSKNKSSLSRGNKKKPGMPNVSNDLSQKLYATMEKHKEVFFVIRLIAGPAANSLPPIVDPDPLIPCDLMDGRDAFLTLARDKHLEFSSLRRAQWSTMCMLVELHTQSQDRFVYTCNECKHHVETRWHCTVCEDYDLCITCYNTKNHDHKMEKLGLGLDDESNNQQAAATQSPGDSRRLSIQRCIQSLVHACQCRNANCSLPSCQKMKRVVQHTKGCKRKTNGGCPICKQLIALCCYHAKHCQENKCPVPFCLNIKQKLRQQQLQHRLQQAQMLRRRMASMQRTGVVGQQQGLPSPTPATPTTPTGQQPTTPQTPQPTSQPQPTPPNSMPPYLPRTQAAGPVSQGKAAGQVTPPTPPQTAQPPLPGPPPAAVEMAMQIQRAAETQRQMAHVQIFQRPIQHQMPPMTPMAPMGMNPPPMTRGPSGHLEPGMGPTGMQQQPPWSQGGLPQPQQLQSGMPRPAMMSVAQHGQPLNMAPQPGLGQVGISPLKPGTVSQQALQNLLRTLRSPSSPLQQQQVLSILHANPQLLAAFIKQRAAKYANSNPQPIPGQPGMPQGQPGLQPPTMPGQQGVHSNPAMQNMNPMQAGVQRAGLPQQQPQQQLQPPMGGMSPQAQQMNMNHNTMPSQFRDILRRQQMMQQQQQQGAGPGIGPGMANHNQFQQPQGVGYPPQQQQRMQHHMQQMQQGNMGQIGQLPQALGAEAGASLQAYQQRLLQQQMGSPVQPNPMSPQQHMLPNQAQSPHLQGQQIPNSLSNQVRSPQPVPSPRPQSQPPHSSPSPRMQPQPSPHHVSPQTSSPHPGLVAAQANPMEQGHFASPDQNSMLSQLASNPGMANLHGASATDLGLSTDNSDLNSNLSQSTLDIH
T1 sequence (Q92793 whole entry): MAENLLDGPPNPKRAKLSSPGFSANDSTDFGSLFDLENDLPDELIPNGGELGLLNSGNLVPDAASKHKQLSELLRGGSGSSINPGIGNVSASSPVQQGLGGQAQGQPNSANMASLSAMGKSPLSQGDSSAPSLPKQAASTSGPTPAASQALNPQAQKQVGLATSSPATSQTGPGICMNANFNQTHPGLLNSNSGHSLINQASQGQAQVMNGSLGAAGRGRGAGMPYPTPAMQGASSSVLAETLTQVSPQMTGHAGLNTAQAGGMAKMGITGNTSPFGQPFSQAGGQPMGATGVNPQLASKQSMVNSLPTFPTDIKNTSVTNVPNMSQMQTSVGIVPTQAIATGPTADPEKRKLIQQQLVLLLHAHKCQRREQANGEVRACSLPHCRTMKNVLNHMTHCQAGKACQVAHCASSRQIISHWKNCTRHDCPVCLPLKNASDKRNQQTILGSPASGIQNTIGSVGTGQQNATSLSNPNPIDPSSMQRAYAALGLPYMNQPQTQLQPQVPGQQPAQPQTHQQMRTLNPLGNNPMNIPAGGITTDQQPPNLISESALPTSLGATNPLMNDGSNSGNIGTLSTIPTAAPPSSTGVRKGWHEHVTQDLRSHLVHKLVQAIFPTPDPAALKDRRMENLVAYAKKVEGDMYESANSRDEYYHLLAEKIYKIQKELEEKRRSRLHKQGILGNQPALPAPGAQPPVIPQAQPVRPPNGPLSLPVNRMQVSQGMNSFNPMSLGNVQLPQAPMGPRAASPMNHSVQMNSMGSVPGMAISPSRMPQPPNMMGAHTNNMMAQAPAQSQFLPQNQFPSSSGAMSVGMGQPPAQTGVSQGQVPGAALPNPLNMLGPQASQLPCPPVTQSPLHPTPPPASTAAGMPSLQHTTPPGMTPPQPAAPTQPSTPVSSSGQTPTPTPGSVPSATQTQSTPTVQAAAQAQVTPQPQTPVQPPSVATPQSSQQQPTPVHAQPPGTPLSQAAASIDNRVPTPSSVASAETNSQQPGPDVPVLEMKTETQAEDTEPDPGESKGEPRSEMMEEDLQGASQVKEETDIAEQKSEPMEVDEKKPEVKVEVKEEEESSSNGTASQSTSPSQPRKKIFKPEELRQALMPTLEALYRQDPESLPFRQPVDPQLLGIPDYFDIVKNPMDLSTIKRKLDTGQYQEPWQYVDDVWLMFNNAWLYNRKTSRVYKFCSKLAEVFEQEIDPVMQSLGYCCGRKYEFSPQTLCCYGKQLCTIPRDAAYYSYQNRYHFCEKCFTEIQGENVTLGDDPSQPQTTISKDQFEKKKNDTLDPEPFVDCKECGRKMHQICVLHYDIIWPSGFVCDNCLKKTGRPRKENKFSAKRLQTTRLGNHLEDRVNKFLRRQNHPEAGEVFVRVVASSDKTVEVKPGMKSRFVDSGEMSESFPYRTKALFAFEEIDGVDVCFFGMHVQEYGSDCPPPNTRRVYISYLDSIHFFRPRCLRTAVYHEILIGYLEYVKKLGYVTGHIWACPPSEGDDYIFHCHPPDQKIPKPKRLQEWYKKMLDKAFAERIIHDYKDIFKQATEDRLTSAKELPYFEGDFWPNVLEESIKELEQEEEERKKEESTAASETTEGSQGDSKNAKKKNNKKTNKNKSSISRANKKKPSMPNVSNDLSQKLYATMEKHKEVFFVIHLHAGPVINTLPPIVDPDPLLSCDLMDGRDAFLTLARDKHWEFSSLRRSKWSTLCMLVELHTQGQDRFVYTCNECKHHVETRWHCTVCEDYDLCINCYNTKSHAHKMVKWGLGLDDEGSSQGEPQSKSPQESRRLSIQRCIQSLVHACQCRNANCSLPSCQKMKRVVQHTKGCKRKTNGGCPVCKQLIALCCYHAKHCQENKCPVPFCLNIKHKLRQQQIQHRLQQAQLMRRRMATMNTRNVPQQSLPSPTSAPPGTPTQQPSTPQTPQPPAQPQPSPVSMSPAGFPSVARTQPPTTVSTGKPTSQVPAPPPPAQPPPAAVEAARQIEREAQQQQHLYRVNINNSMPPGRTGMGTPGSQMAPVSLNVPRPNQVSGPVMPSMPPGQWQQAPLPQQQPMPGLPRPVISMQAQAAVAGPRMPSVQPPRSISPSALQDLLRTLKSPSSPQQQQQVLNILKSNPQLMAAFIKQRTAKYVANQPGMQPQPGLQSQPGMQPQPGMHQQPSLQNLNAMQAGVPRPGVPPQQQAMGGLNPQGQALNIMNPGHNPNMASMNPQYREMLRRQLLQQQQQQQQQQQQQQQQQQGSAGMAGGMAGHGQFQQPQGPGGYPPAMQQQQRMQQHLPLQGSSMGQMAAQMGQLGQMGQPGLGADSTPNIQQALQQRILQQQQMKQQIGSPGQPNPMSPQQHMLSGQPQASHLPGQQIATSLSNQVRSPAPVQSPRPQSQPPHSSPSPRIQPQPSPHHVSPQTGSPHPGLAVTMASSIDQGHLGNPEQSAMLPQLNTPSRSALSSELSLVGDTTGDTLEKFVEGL

| SMILES | IC50 (LNCaP cells; CellTiter-Glo (Table 3)) | inhibition at 0.01 µM (P300 [2]; [3]) | other results |
| --- | --- | --- | --- |
| CC(=O)N1CCc2c(c(N3CCCc4cc(-c5cnn(C)c5)c(C(F)F)cc43)nn2C2CCN(C(=O)CCCCCNc3cccc4c3C(=O)N(C3CCC(=O)NC3=O)C4=O)CC2)C1 (stereo not drawn) [P-100, 4-((6-(4-(5-acetyl-3-(7-(difluoromethyl)-6-(1-methyl-1H-pyrazol-4-yl)-3,4-dihydroquinolin-1(2H)-yl)-4,5,6,7-tetrahydro-1H-pyrazolo[4,3-c]pyridin-1-yl)piperidin-1-yl)-6-oxohexyl)amino)-2-(2,6-dioxopiperidin-3-yl)isoindoline-1,3-dione] | 0.9 nM | > 80% | degradation of P300/CBP in combination with pomalidomide, MG-132, Bortezomib or MLN4924 (P300/CBP): compromised; also recorded: neutralized; CBP protein levels in 22RV1 xenograft tumors (CBP): significantly reducing; P300 protein levels in 22RV1 xenograft tumors (P300 [1]): significantly reducing; P300 protein levels, dependence on interaction with cereblon (P300 [2]; LNCaP or 22RV1 cells, various concentrations (FIG. 7)): reduced P300 protein levels in a concentration-dependent manner |
| CNC(=O)N1CCc2c(c(N3CCCc4cc(-c5cnn(CC(=O)NCCC(=O)N[C@H](C(=O)N6C[C@H](O)C[C@H]6C(=O)NCc6ccc(-c7scnc7C)cc6)C(C)(C)C)c5)c(C(F)F)cc43)nn2C2CCOCC2)C1 [P-045, 3-(7-(Difluoromethyl)-6-(1-(2-((3-(((S)-1-((2S,4R)-4-hydroxy-2-((4-(4-methylthiazol-5-yl)benzyl)carbamoyl)pyrrolidin-1-yl)-3,3-dimethyl-1-oxobutan-2-yl)amino)-3-oxopropyl)amino)-2-oxoethyl)-1H-pyrazol-4-yl)-3,4-dihydroquinolin-1(2H)-yl)-N-methyl-1-(tetrahydro-2H-pyran-4-yl)-1,4,6,7-tetrahydro-5H-pyrazolo[4,3-c]pyridine-5-carboxamide] | – | – | IC50 (LNCaP cells; CellTiter-Glo (Table 2)): > 10000 nM; inhibition at 0.01 µM (P300 [2]; percentage of inhibition of p300 at 10 nM (Table 2)): < 20% |
| CC(=O)N1CCc2c(c(N3CCCc4cc(-c5cnn(C)c5)c(C(F)F)cc43)nn2C2CCN(C(=O)CC#CCCNc3cccc4c3C(=O)N(C3CCC(=O)NC3=O)C4=O)CC2)C1 (stereo not drawn) [P-171, 4-((6-(4-(5-Acetyl-3-(7-(difluoromethyl)-6-(1-methyl-1H-pyrazol-4-yl)-3,4-dihydroquinolin-1(2H)-yl)-4,5,6,7-tetrahydro-1H-pyrazolo[4,3-c]pyridin-1-yl)piperidin-1-yl)-6-oxohex-3-yn-1-yl)amino)-2-(2,6-dioxopiperidin-3-yl)isoindoline-1,3-dione] | 253 nM | 20 to 50% | – |
| CNC(=O)N1CCc2c(c(N3CCCc4cc(-c5cnn(C)c5)c(C(F)F)cc43)nn2C2CCN(C(=O)CCCCCNc3cccc4c3C(=O)N(C3CCC(=O)NC3=O)C4)CC2)C1 (stereo not drawn) [P-096, 3-(7-(difluoromethyl)-6-(1-methyl-1H-pyrazol-4-yl)-3,4-dihydroquinolin-1(2H)-yl)-1-(1-(6-((2-(2,6-dioxopiperidin-3-yl)-3-oxoisoindolin-4-yl)amino)hexanoyl)piperidin-4-yl)-N-methyl-1,4,6,7-tetrahydro-5H-pyrazolo[4,3-c]pyridine-5-carboxamide] | 26.6 nM | > 80% | – |

More lines, main results first:

| IC50 (LNCaP cells; CellTiter-Glo (Table 3)) | inhibition at 0.01 µM (P300 [2]; [3]) | SMILES | other results |
| --- | --- | --- | --- |
| 60.7 nM | < 20% | CNC(=O)N1CCc2c(c(N3CCCc4cc(-c5cnn(C)c5)c(C(F)F)cc43)nn2C2CCN(C(=O)CCOCCOCCOCCOCCOCCC(=O)N[C@H](C(=O)N3C[C@H](O)C[C@H]3C(=O)NCc3ccc(-c4scnc4C)cc3)C(C)(C)C)CC2)C1 [P-072, 3-(7-(Difluoromethyl)-6-(1-methyl-1H-pyrazol-4-yl)-3,4-dihydroquinolin-1(2H)-yl)-1-(1-((S)-21-((2S,4R)-4-hydroxy-2-((4-(4-methylthiazol-5-yl)benzyl)carbamoyl)pyrrolidine-1-carbonyl)-22,22-dimethyl-19-oxo-4,7,10,13,16-pentaoxa-20-azatricosanoyl)piperidin-4-yl)-N-methyl-1,4,6,7-tetrahydro-5H-pyrazolo[4,3-c]pyridine-5-carboxamide] | – |
| > 10000 nM | < 20% | CNC(=O)N1CCc2c(c(N3CCCc4cc(-c5cnn(CC(=O)NCCCCCCC(=O)N[C@H](C(=O)N6C[C@H](O)C[C@H]6C(=O)NCc6ccc(-c7scnc7C)cc6)C(C)(C)C)c5)c(C(F)F)cc43)nn2C2CCOCC2)C1 [P-080, 3-(7-(Difluoromethyl)-6-(1-(2-((7-(((S)-1-((2S,4R)-4-hydroxy-2-((4-(4-methylthiazol-5-yl)benzyl)carbamoyl)pyrrolidin-1-yl)-3,3-dimethyl-1-oxobutan-2-yl)amino)-7-oxoheptyl)amino)-2-oxoethyl)-1H-pyrazol-4-yl)-3,4-dihydroquinolin-1(2H)-yl)-N-methyl-1-(tetrahydro-2H-pyran-4-yl)-1,4,6,7-tetrahydro-5H-pyrazolo[4,3-c]pyridine-5-carboxamide] | – |
| > 10000 nM | < 20% | CNC(=O)N1CCc2c(c(N3CCCc4cc(-c5cnn(CC(=O)NCCOCCOCCOCCOCCC(=O)N[C@H](C(=O)N6C[C@H](O)C[C@H]6C(=O)NCc6ccc(-c7scnc7C)cc6)C(C)(C)C)c5)c(C(F)F)cc43)nn2C2CCOCC2)C1 [P-078, 3-(7-(Difluoromethyl)-6-(1-((S)-20-((2S,4R)-4-hydroxy-2-((4-(4-methylthiazol-5-yl)benzyl)carbamoyl)pyrrolidine-1-carbonyl)-21,21-dimethyl-2,18-dioxo-6,9,12,15-tetraoxa-3,19-diazadocosyl)-1H-pyrazol-4-yl)-3,4-dihydroquinolin-1(2H)-yl)-N-methyl-1-(tetrahydro-2H-pyran-4-yl)-1,4,6,7-tetrahydro-5H-pyrazolo[4,3-c]pyridine-5-carboxamide] | – |
